Test results reported in patent US20260021084A1, “METHOD OF TREATING ORGAN DISEASES OR DISORDERS WITH ASK1 INHIBITORS” (Seal Rock Therapeutics, Inc., priority 2022, published 2026).

Columns and labels:
Assay type in all cases: in vivo
[1] = Organ distribution of ASK1 inhibitor in rats after intravenous administration; conditions: male, Sprague-Dawley, rat, single IV 10 mg/kg
Experimental: The objective of this study was to investigate organ (liver, heart, kidney, pancreas, spleen and skin) distribution of ASK1 inhibitor in male Sprague Dawley rats following a single intravenous (IV) administration at a dose of 10 mg/kg. Three rats are administered intravenously with a solution formulation of ASK1 inhibitor 2-(6-(4-cyclopropyl-4H-1,2,4-triazol-3-yl)pyridin-2-yl)-5-(morpholine-4-carbonyl)isoindolin-1-one in 5% NMP, 15% Solutol HS-15, 20% PEG-400 and 60% HpBetaCD at 10 mg/kg dose. 2-(6-(4-Cyclopropyl-4H-1,2,4-triazol-3-yl)pyridin-2-yl)-5-(morpholine-4-carbonyl)isoindolin-1-one was prepared as described in US2018/0291002 which is herein incorporated by reference in its entirety.
(§1) Blood samples (approximately 120 μL) were collected under light isoflurane anesthesia from retro orbital plexus from a set of three rats at 1 h post IV injection. Immediately after blood collection, plasma was harvested by centrifugation at 4000 rpm, 10 min at […] and samples were stored at −70±10° C. until bioanalysis. Animals were sacrificed immediately followed by abdominal vena-cava cut open and whole body was perfused from heart using 10 mL of normal saline. After isolation, tissue samples were rinsed three times in ice cold normal saline (for 5-10 seconds/rinsed using ˜5-10 mL normal saline in disposable petri dish for each rinse, dried on blotting paper and weighed. Tissue (liver, heart, kidney, pancreas, spleen and skin) samples were homogenized using ice-cold phosphate buffer saline (pH−7.4). Total homogenate volume was five times the tissue weight. All homogenates were stored below −70±10° C. until bioanalysis.
(§2) Plasma, liver, heart, kidney, pancreas, spleen, and skin samples were quantified by fit-for-purpose LC-MS/MS method.

C57Bl/6 male mice = test: Efficacy of intravenous ASK1 inhibitor in liver injury due to acute alcoholic hepatitis (pyrazole/LPS model), plasma ALT; conditions: IV 0.3 and 3 mg/kg twice (3 hours apart), plasma 24 h after LPS
Experimental: The goal of the study is to evaluate whether IV administered ASK1 inhibitor can reduce liver injury due to acute alcoholic hepatitis (AH).
Seven-day acclimated C57Bl/6 male mice were treated with pyrazole for 2-days to induce CYP2E, prior to ASK1 inhibitor and lipopolysaccharide (LPS) administration. On day 3, ASK1 inhibitor 2-(6-(4-cyclopropyl-4H-1,2,4-triazol-3-yl)pyridin-2-yl)-5-(morpholine-4-carbonyl)isoindolin-1-one was administered by IV injection via tail vein at 0.3 and 3 mg/kg or vehicle twice (3 hours apart). LPS was administered intraperitoneally 30 min after the first dose of 2-(6-(4-cyclopropyl-4H-1,2,4-triazol-3-yl)pyridin-2-yl)-5-(morpholine-4-carbonyl)isoindolin-1-one. LPS administration emulates the inflammation by gut bacteria penetrating the intestinal wall following binge drinking. 24 h after LPS administration, plasma was collected for ALT analysis to estimate reduction of liver injury following intravenous treatment with ASK1 inhibitor.

[2] = Organ distribution of ASK1 inhibitor in rats after oral administration; conditions: male, Sprague-Dawley, rat, single oral 300 mg/kg
Experimental: The objective of this study was to investigate organ (liver, heart, kidney) distribution of ASK1 inhibitor in male Sprague Dawley rats following a single oral (PO) administration at a dose of 300 mg/kg. Three rats are administered orally with suspension formulation of ASK1 inhibitor 2-(6-(4-cyclopropyl-4H-1,2,4-triazol-3-yl)pyridin-2-yl)-5-(morpholine-4-carbonyl)isoindolin-1-one in a formulation of 0.1% Tween 80 and 99.9% HPMC (0.5% w/v in water) at 300 mg/kg dose.
as §1, with “PO administration.” for “IV injection.”, “kidney)” for “kidney, pancreas, spleen and skin)”
as §2

[3] = heart / plasma, read-out: Tissue-to-plasma ratio, Heart
[4] = kidney / plasma, read-out: Tissue-to-plasma ratio, Kidney
[5] = liver / plasma, read-out: Tissue-to-plasma ratio, Liver

O=C(c1ccc2c(c1)CN(c1cccc(-c3nncn3C3CC3)n1)C2=O)N1CCOCC1 [2-(6-(4-cyclopropyl-4H-1,2,4-triazol-3-yl)pyridin-2-yl)-5-(morpholine-4-carbonyl)isoindolin-1-one]
Kp at 1 h [1, 3]: 1.11 | Kp at 1 h [1, 4]: 5.99 | Kp at 1 h [1, 5]: 9.37 | Kp at 1 h ([1]; pancreas / plasma, read-out: Tissue-to-plasma ratio, Pancreas): 0.99 | Kp at 1 h ([1]; skin / plasma, read-out: Tissue-to-plasma ratio, Skin): 0.46 | Kp at 1 h ([1]; spleen / plasma, read-out: Tissue-to-plasma ratio, Spleen): 0.89 | lowered plasma ALT levels (C57Bl/6 male mice): 74-85% | Kp at 1 h [2, 3]: 1.13 | Kp at 1 h [2, 4]: 7.47 | Kp at 1 h [2, 5]: 13.8
